Here are results for two compounds from US12023365B2, “Sustained release formulations of Crocus sativus” (COUNCIL OF SCIENTIFIC & INDUSTRIAL RESEARCH, priority 2017, dated 2024).

Structures are written as SMILES.

The conditions of data set [1]: literature (Asai 2005; Liu and Qian 2002); cited from earlier work.
The test system of data set [2] is scopolamine induced memory deficit. Put plainly: Scopolamine induced dementia, passive avoidance test. Type of data set: in vivo. The following applies: Swiss albino mice, 2 mg/kg. The source says:
Animals were randomized to their body weight (n=6-8). All animals were then habituated to experimental apparatus (Passive avoidance instrument of make—UGO Basile Biological Research Apparatus Italy) prior to the experiment. For habituation, animals were placed gently in the light compartment of the apparatus. After 5 seconds guillotine door was opened and animal allowed entering the dark compartment without giving the shock. Animals that took more than 100 seconds to enter the dark room were eliminated from the experiments. For acquisition trial the animals were placed in light compartment and allowed to enter the dark compartment through guillotine door. As soon as the animal entered to the dark compartment, door was closed and animal was delivered a foot shock (0.5 mA current) immediately for the duration of 5 seconds. Animals were then removed from apparatus after 20 seconds and placed temporarily in its home cage. Repeated the same procedure (keeping the gap between acquisition trials to 5 minutes) till the animal remained in the light compartment for consecutive 120 seconds. Retention was recorded at day 2 without shock in dark chamber. Increase in transfer latency time from light to dark chamber indicated learning in animals. Rivastigmine was used as positive control in this study. […] Percentage (%) change in transfer latency as compared with control on retention trial was calculated. […]

In the case of `CC(/C=C/C=C(\C)C(=O)O)=C\C=C\C=C(C)\C=C\C=C(/C)C(=O)O` [crocetin], in data set [1], the plasma half-life was approximately 2 h. On to `CCN(C)C(=O)Oc1cccc([C@H](C)N(C)C)c1` [rivastigmine], for which the “effect on latency time (positive control)” value in data set [2] is “significant reduction in latency time”.
